Assay results published in patent US12565495B2, “VMAT2 inhibitor and preparation method therefor and application thereof” (Luye Innomind Pharma Shijiazhuang Co., Ltd., priority 2019, dated 2026).
Values belong to the molecule of their own block, whether it stands above or below them.

What was measured:
[1] = Excipient compatibility test (purity after storage with excipients); format: physicochemical; conditions: for purity change after mixing with excipients: mixed with excipients 1:20, placed open at 60° C. for 5 days
Description: Then the mixture was placed open at 60° C. for 5 days.
Purity detection method: about 35 mg of the sample was weighed precisely and placed in a 25 ml measuring flask. 15 ml of acetonitrile was added to dissolve the sample by ultrasound. Water was used to dilute to a given mark and the mixture was shaken uniformly and used as sample solution to be tested. Determination was carried out based on high performance liquid chromatography, octadecyl silane bonded silica gel was used as the filler (Inerstil ODS-3V, 250 mm×4.6 mm, 5 μm); 10 mmol/L diammonium hydrogen phosphate solution (adjusting the pH value to 6.95±0.05)-acetonitrile (80:20) was used as mobile phase A, acetonitrile was used as mobile phase B, and gradient elution was carried out according to Table 39. The detection wavelength was 282 nm; the column temperature was 35° C.; and the flow rate was 1.0 ml/min. 10 μl of the sample solution to be tested was precisely measured and injected into the liquid chromatograph, and the chromatogram was recorded. Calculation was carried out by the peak area normalization method.

[2] = 11-P4S crystal forms A/D/E suspension competition test; format: physicochemical; conditions: suspension in IPA / IPAc, room temperature to 50° C., 17 hours
Description: Then XRPD was carried out on the solid.

[3] = Liver microsome incubation test, dog; format: in vitro ADME; conditions: dog liver microsomes 0.5 mg/mL, 1 μM compound, NADPH, 37° C.
Description: (§1) Incubation: 100 μL of an incubation system included: liver microsomes (human, rat, mouse, monkey or dog) (0.5 mg/mL), sodium phosphate buffer (100 mM), and magnesium chloride (10 mM). […] After pre-incubation of the systems at 37° C. for 3 min, NADPH was added to a final concentration of 1 mM. The reaction was started. […] Each sample at each time point was processed parallelly in duplicate and a blank control group without coenzymes and a positive control group were provided.
(§2) A certain amount of internal standard was added to the sample following termination with acetonitrile. […] Relative remaining amount was taken as the ordinate and time as the abscissa.

[4] = Liver microsome incubation test, rat; conditions: rat liver microsomes 0.5 mg/mL, 1 μM compound, NADPH, 37° C.
Description: as §1, §2

VMAT2 = VMAT2 (Rattus norvegicus (Rat), UniProt Q01827); assay: Radioactivity detection of binding to VMAT2 in rats ([3H]DHTBZ binding assay, rat cerebral vesicle membrane); conditions: Table 25
Description: I. Radioactivity Detection of Activity of Compounds Binding to VMAT2 in Rats (Binding assay)
To determine the IC50 and Ki values of the binding of various compounds to VMAT2 in rats and to evaluate the affinity of compounds for VMAT2.
Male Wistar rat, weighing 175±25 g, was selected and the whole brain (without the cerebellum) of the rat was isolated surgically and placed into a pre-chilled sucrose solution (20 mL, 0.32 M) and homogenized by a Teflon pestle homogenizer. […] The supernatant was discarded and the precipitate obtained was placed in ice cold MilliQ water (18 mL, Millipore Corporation, Billerica, MA), incubated for 5 minutes and subjected to osmotic shock to shatter cell membrane. Then osmolarity was restored by addition of HEPES solution (25 mM, 2 mL) and potassium tartrate solution (100 mM, 2 mL). The resulting sample was centrifuged at 20,000 g for 20 min at 4° C. The supernatant was aspirated and MgSO4 solution (1 mM, 20 μL) was added. […] The precipitate was collected and resuspended in ice cold assay buffer (25 mM HEPES, 100 mM potassium tartrate, 5 mM MgSO4, 0.1 mM EDTA and 0.05 mM EGTA, pH 7.5) to obtain a vesicle suspension.
After completion of the incubation, the reaction solution was filtered (bacteria filter and collector, PerkinElmer Life and Analytical Sciences) to a filter plate and subsequently, the filter membrane was washed with 350 μL of ice-cold buffer (25 mM HEPES, 100 mM potassium tartrate, 5 mM MgSO4 and 10 mM NaCl, pH 7.5) five times. The filter plate was dried and had the bottom sealed. 40 μL of scintillation cocktail (MicroScint 20; PerkinElmer Life and Analytical Sciences) was added to each well. Radioactivity on the filter was determined by liquid scintillation spectrometry (TopCount NXT; PerkinElmer Life and Analytical Sciences).
Based on the radioactivity assay results above, IC50 and Ki were calculated. IC50 was calculated by a non-linear, least squares regression analysis using MathIQ™ (ID Business Solutions Ltd., UK). Ki values were calculated using the equation of Cheng and Prusoff (Cheng, Y., Prusoff, W. H., Biochem. Pharmacol. 22:3099-3108, 1973). Ki values were calculated in combination with the IC50 of the test compound and the historical KD in the radioactivity detection method of Eurofins Panlabs company.

[5] = Pharmacokinetic test in SD rats, gavage 10 μmol/kg (plasma concentration-time curves); format: in vivo; conditions: male SD rats, FIG. 9
Description: Method of Pharmacokinetic Test in SD Rats:
The dosage of administration was 10 μmol/kg. At 0.25, 0.5, 1, 2, 3, 4, 6, 8 and 12 h post-dose, blood samples (about 0.2 mL/time point/rat) were collected to heparinized tubes.

[6] = Distribution test in SD rat brain tissue, gavage 12 μmol/kg (brain concentration, brain/plasma ratio); format: in vivo; conditions: SD rats, gavage 12 μmol/kg of compound 21 or VBZ, 2 h post-dose; compound 21 vs VBZ, metabolite compound 11 vs DHTBZ
Description: After the rats were sacrificed, the brain tissues were extracted, washed with normal saline and dried with filter paper. Cerebral vessels were stripped and the remaining brain tissues were weighed and stored at −20° C.

[7] = Liver microsome incubation test, human; conditions: human liver microsomes 0.5 mg/mL, 1 μM compound, NADPH, 37° C.
Description: as §1, §2

[8] = test system: SD rat autonomous activity; assay: SD rat autonomous activity model (total movement distance in open field, TopScan); format: in vivo; conditions: SD rats, 0 hr to 1 hr post-dose
Description: SD rat autonomous activity models were used in the study.
• 2.1 Test animals: 32 SD rats, SPF-grade, Male, 5-7 weeks old, weighing: 200-220 g, pre-accustomed for at least 1 week before the test.
Preparation method: An appropriate amount of the medicament was weighed and dissolved with a small amount of DMSO (not more than 1% of the total volume). Then, 20% Solutol was added to obtain the desired medicament concentration and the final concentration of DMSO was <4%.
The rats were put into the detection box, pre-accustomed for 10 min and fasted. Animal grouping and dosing information were detailed in Table 35.
On the day of the test, the animals were accustomed for at least 1 hr in the test room. Rats in each group were given a vehicle or corresponding medicaments, respectively according to the doses in Table 35 in one single gavage and then put into the activity room. […] Rats of a same group should not be put in one same room among the eight activity rooms, and there was at least one rat from the control group in each round of test to prevent mutual interference. At the end of each round of test, the feces were swept out and the activity rooms were cleaned to avoid the influence of irrelevant interfering factors (odor, etc.) on the exercise activities of the rats.
The total movement distances of rats from 2 hr to 3 hr post-dose were recorded and analyzed by using a TopScan monitoring system and the reduction rate (RR) of the total movement distance was calculated, wherein RR=(Control group movement distance-Administration group movement distance)/Control group movement distance*100%.
Test data were expressed as mean±standard error of the mean (MEAN±SEM). Difference between various groups at each time point was compared by using PASW Statistics 18.0 software with one-way analysis of variance (ANOVA).
Animal grouping and dosing information were detailed in […].

[9] = Pharmacokinetic / bioavailability test in SD rats (gavage 5 μmol/kg, intravenous 2 μmol/kg); conditions: male, rat, plasma, 2 umol/kg
Description: At each corresponding time point post-dose, blood samples (about 1 ml/time point/rat) were collected to heparinized tubes. Within half an hour after collection, the samples were centrifuged to separate the plasma, which was transferred to 1.5 ml EP tubes and stored at −20° C. for detection.
Method for precipitating proteins was used for the pretreatment of the samples: protein precipitation was carried out in 25 μL of plasma by using 200 μL of acetonitrile containing internal standard. After high-speed centrifugation, the supernatant was diluted with water (1:1 (V/V)) and injected for analysis.

Chain of VMAT2 (Q01827 whole entry): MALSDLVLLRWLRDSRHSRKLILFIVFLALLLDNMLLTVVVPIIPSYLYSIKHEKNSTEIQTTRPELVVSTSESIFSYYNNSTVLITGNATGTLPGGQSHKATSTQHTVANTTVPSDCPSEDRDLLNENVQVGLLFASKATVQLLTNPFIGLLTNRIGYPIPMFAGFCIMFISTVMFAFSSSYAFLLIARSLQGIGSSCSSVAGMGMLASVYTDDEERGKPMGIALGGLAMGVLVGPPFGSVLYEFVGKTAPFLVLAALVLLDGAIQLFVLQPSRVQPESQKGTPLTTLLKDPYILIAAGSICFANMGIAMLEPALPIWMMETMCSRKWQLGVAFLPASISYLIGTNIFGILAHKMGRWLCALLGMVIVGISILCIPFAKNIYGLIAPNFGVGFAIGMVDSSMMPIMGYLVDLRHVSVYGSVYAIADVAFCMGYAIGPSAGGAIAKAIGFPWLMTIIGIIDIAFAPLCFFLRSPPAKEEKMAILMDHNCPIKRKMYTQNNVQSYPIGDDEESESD

Structure (SMILES): COc1cc2c(cc1OCC(F)(F)F)CCN1C[C@@H](CC(C)C)[C@H](O)C[C@H]21.Cc1ccc(S(=O)(=O)O)cc1 [crystal form A of 11-P4S]
purity ([1]; API alone, 0 d): 99.70%
purity ([1]; API alone, high temperature (60° C.), open, 5 d): 99.69%
purity ([1]; mixed with MCC 1:20, high temperature (60° C.), open, 5 d): 99.26%
purity change after mixing with excipients [1]: no obvious change
purity ([1]; mixed with magnesium stearate 1:20, high temperature (60° C.), open, 5 d): 99.68%
purity ([1]; mixed with talc powder 1:20, high temperature (60° C.), open, 5 d): 99.68%
thermodynamic stability of crystal form [2]: most thermodynamically stable crystal form

Structure (SMILES): COc1cc2c(cc1OCCCC(F)(F)F)CCN1CC(CC(C)C)C(O)CC21 (centres unmarked) [Compound 13]
Elimination half-life (t1/2) in liver microsomes [3]: ~ (the data showed that the metabolism was stable and the rate of the original compound left was greater than 80% after an incubation of 60 min.)
Elimination half-life (t1/2) in liver microsomes [4]: ~ (the data showed that the metabolism was stable and the rate of the original compound left was greater than 80% after an incubation of 60 min.)

Structure (SMILES): COc1cc2c(cc1OCCCF)CCN1CC(CC(C)C)C(O)CC21 (centres unmarked) [Comparative Example 44, reference compound]
Elimination half-life (t1/2) in liver microsomes [4]: ~ (the data showed that the metabolism was stable and the rate of the original compound left was greater than 80% after an incubation of 60 min.)

Structure (SMILES): COc1cc2c(cc1OCC(F)F)CCN1CC(CC(C)C)C(O)CC21 (centres unmarked) [Compound 12]
Elimination half-life (t1/2) in liver microsomes [3]: ~ (the data showed that the metabolism was stable and the rate of the original compound left was greater than 80% after an incubation of 60 min.)
Elimination half-life (t1/2) in liver microsomes [4]: ~ (the data showed that the metabolism was stable and the rate of the original compound left was greater than 80% after an incubation of 60 min.)
Elimination half-life (t1/2) in liver microsomes [7]: ~ (the data showed that the metabolism was stable and the rate of the original compound left was greater than 80% after an incubation of 60 min.)

Structure (SMILES): COCCCOc1cc2c(cc1OC)C1CC(O)C(CC(C)C)CN1CC2 (centres unmarked) [Compound 17]
IC50 (VMAT2): 58 nM

Structure (SMILES): COc1cc2c(cc1OCC(F)(F)F)CCN1CC(CC(C)C)C(OC(=O)[C@@H](N)C(C)C)CC21 (some centres unmarked) [Compound 21]
concentration in brain tissue compared to VBZ and DHTBZ [6]: significantly higher

Structure (SMILES): CCCOc1cc2c(cc1OCC)CCN1CC(CC(C)C)C(O)CC21 (centres unmarked) [Comparative Example 41, reference compound]
IC50 (VMAT2): 280 nM

Structure (SMILES): COc1cc2c(cc1OC)[C@H]1C[C@@H](OC(=O)[C@@H](N)C(C)C)[C@H](CC(C)C)CN1CC2 [VBZ, valbenazine]
half-life [9]: 1.67 h

More lines, main results first:

IC50 (VMAT2): 12.9 nM
Structure (SMILES): CCOc1cc2c(cc1OC)C1CC(O)C(CC(C)C)CN1CC2 (centres unmarked) [Compound 16]
Elimination half-life (t1/2) in liver microsomes [4]: ~ (the data showed that the metabolism was stable and the rate of the original compound left was greater than 80% after an incubation of 60 min.)

IC50 (VMAT2): 4.9 nM
Structure (SMILES): CCCOc1cc2c(cc1OC)C1CC(O)C(CC(C)C)CN1CC2 (centres unmarked) [Compound 20]

exposure compared to Comparative Example 44 compound and DHTBZ [5]: higher exposure
concentration in brain tissue compared to VBZ and DHTBZ [6]: significantly higher
Structure (SMILES): COc1cc2c(cc1OCC(F)(F)F)CCN1CC(CC(C)C)C(O)CC21 (centres unmarked) [Compound 11]
Elimination half-life (t1/2) in liver microsomes [3]: ~ (the data showed that the metabolism was stable and the rate of the original compound left was greater than 80% after an incubation of 60 min.)
Elimination half-life (t1/2) in liver microsomes [4]: ~ (the data showed that the metabolism was stable and the rate of the original compound left was greater than 80% after an incubation of 60 min.)

purity change after mixing with excipients [1]: purity dropped obviously
Structure (SMILES): COc1cc2c(cc1OCC(F)(F)F)CCN1C[C@@H](CC(C)C)[C@H](O)C[C@H]21 [Compound 11-P4]
movement distance (rat autonomous activity) ([8]; 1.25 μmol/kg): 9313±1213 mm
movement distance (rat autonomous activity) ([8]; 2.5 μmol/kg): 5959±1615 mm
movement distance (rat autonomous activity) ([8]; 5.0 μmol/kg): 1216±429.9 mm
movement distance (rat autonomous activity) ([8]; 10.0 μmol/kg): 1355±524.1 mm
